Laboratory results from DBAASP.
≈ marks a conversion by molar mass, not a printed value.

How the values were obtained:
Assay in all cases: ≥ marks a high value that may be exact or a test limit, other limits are often not marked, values filed in µg/mL are converted to µM
[1] = system: Bacillus subtilis KCTC 1918
[2] = system: Aspergillus fumigatus KCTC 4165
[3] = system: Staphylococcus aureus KCTC 1621
[4] = system: Salmonella typhimurium KCTC 1926
[5] = system: Streptococcus pyogenes KCTC 3096
[6] = system: Candida albicans TIMM 1768
[7] = system: Pseudomonas aeruginosa KCTC 1637
[8] = system: Escherichia coli KCTC 1682
[9] = system: Streptococcus sanguinis NY101
[10] = system: Streptococcus mutans UA159
[11] = system: Streptococcus gordonii DL1
[12] = system: Streptococcus mutans comD

Row | MIC [1] [µM] | MIC [2] [µM] | MIC [3] [µM] | MIC [4] [µM] | MIC [5] [µM] | MIC [6] [µM] | MIC [7] [µM] | MIC [8] [µM] | MIC [9] [µM] | MIC [10] [µM] | MIC [11] [µM] | MIC [12] [µM] | SMILES
1 | 6.25 (≈ 13.4 µg/mL) | 25 (≈ 53.7 µg/mL) | 6.25 (≈ 13.4 µg/mL) | 6.25 (≈ 13.4 µg/mL) | 12.5 (≈ 26.8 µg/mL) | 25 (≈ 53.7 µg/mL) | 3.12 (≈ 6.7 µg/mL) | 6.25 (≈ 13.4 µg/mL) | – | – | – | – | CC[C@H](C)[C@H](NC(=O)[C@H](CCCCN)NC(=O)[C@H](CCCCN)NC(=O)[C@H](CC(C)C)NC(=O)[C@H](CCCCN)NC(=O)[C@H](CCC(=O)O)NC(=O)CN)C(=O)NCC(=O)N[C@@H](CCC(N)=O)C(=O)N[C@@H](CCCCN)C(=O)N[C@H](C(=O)N[C@@H](CCCCN)C(=O)N[C@@H](CC(N)=O)C(=O)N[C@@H](Cc1ccccc1)C(=O)N[C@@H](Cc1ccccc1)C(=O)N[C@@H](CCCCN)C(=O)N[C@@H](CCCCN)C(=O)N[C@@H](CC(C)C)C(=O)O)[C@@H](C)CC [GEKLKKIGQKIKNFFKKL]
2 | – | – | – | – | – | – | – | – | 20 (≈ 60.3 µg/mL) | 2.5 (≈ 7.54 µg/mL) | 10 (≈ 30.2 µg/mL) | 2.5 (≈ 7.54 µg/mL) | CC(C)C[C@H](NC(=O)[C@H](CCCN=C(N)N)NC(=O)[C@H](Cc1ccccc1)NC(=O)[C@H](Cc1ccccc1)NC(=O)[C@@H](N)[C@@H](C)O)C(=O)N[C@@H](Cc1ccccc1)C(=O)N[C@@H](CC(N)=O)C(=O)N[C@@H](CCCN=C(N)N)C(=O)N[C@@H](CO)C(=O)NCC(=O)NCC(=O)NCC(=O)N[C@@H](Cc1ccccc1)C(=O)N[C@@H](CCCCN)C(=O)N[C@@H](CCCCN)C(=O)N[C@@H](Cc1ccccc1)C(=O)N[C@@H](Cc1c[nH]c2ccccc12)C(=O)N[C@@H](CCCCN)C(=O)N[C@@H](Cc1c[nH]c2ccccc12)C(=O)N[C@@H](Cc1ccccc1)C(=O)N[C@@H](CCCN=C(N)N)C(=O)N[C@@H](CCCN=C(N)N)C(=O)N[C@@H](Cc1ccccc1)C(=O)O [TFFRLFNRSGGGFKKFWKWFRRF]
